In US9134313B2, “Method of detecting colorectal cancer of stages 0 to I” (Tokyo Metropolitan Organization For Medical Research, priority 2003, dated 2015):

Test system: anti-DiAcSpm antibody Code No. NZW 2
Test: Cross-reactivity of affinity-purified anti-DiAcSpm antibody with urinary DiAcSpm analogues
Format: binding, rabbit
Conditions: for Cross-reactivity (1)x(2) %: cross-reactivity multiplied by abundance in urine: interference on urinary DiAcSpm determination; for KiDiAcSpm/Ki"s"(%) (1): cross-reactivity of antibody NZW 2 with each polyamine, DiAcSpm = 100
From the text: The antibody of the invention has one or both of the following properties: (i) its cross-reactivity with N^1-AcSpd (which is present in urine as a DiAcSpm analogue in an amount about 30-times greater than DiAcSpm) is 0.1% or less; (ii) total interference on the measurement results caused by its cross-reaction with DiAcSpm analogues present in urine is 5% or less. The numerical value mentioned in (i) above is a value showing the nature of the antibody. The numerical value mentioned in (ii) above is a value obtained by multiplying cross-reactivity itself by the abundance of these analogues in urine; this value can be an indicator showing how much interference these analogues would give actually on the quantitative determination of DiAcSpm.
Step-wise affinity purification was carried out to examine whether specific antibodies with sufficient purity applicable to a urinary DiAcSpm measuring system can be obtained. The affinity purification was carried out step-wise based on the method of Kawakita et al. (Hiramatsu, K. et al., J. Biochem., 124, 231-236 (1998)), using DiAcSpm column and DiSpd column prepared by derivatizing carboxy-Toyopearl with AcSpm and N8-AcSpd (FIG. 3).
Further, the total interference on the measurement results caused by the cross-reaction of this antibody with DiAcSpm analogues present in urine was 2.9%; thus, cross-reactivity of 5% or less was achieved (FIG. 4, Table 3).

Structure (SMILES) | Cross-reactivity (1)x(2) % [%] | KiDiAcSpm/Ki"s"(%) (1) | KiDiAcSpm/Ki"s"(%) (1) (listed as N^1-AcSpd)
CC(=O)NCCCNCCCCNCCCN [AcSpm, monoacetylspermine] | 0.131 | 0.418 | –
CC(=O)NCCCNCCCCNCCCNC(C)=O [DiAcSpm, N^1,N^12-diacetylspermine] | 100 | 100 | –
CC(=O)NCCCNCCCCN [N1-AcSpd, N^1-Ac-Spermidine] | 2.65 | 0.100 | ≤ 0.1
CC(=O)NCCCCNCCCNC(C)=O [DiAcSpd, N^1,N^8-diacetylspermidine] | 0.094 | 0.032 | –
CC(=O)NCCCCNCCCN [N8-AcSpd, N^8-Ac-Spermidine] | 0.024 | 0.001 | –
